How the values were obtained:
Assay in all cases: Ba/F3 drug screening, Cell Titer Glo, IC50 Mut/WT
Assay type in all cases: cell-based
EGFR Ex19del L718Q = target: T1, EGFR Ex19del L718Q (Homo sapiens, UniProt P00533, DEL746-750/L718Q); conditions: Ba/F3 cells, EGFR Ex19del L718Q (PACC), Mut/WT
T1 construct: expressed in transfected cells; host or cells: Ba/F3

[1] = target: T2, EGFR L747_K754del insATSPE (Homo sapiens, UniProt P00533, DEL747-749/K754E); conditions: T790M-like-3S, 72 hours
T2 construct: expressed in transfected cells; host or cells: Ba/F3 cells, retroviral pBabe-Puro vector

EGFR L858R/T790M/L718Q = target: T3, EGFR L858R/T790M/L718Q (Homo sapiens, UniProt P00533, L718Q/L858R/T790M); conditions: T790M-like-3R, 72 hours
T3 construct: expressed in transfected cells; host or cells: Ba/F3
Experimental: Data represent the ratio of the IC50 value for a given TKI for cells with a T790M-like-3R EGFR mutation to the IC50 value for cells with wildtype EGFR.
(§1) Ba/F3 cell generation, drug screening, and IC50 approximations. Ba/F3 cells were obtained as a gift from Dr. Gordon Mills (MD Anderson Cancer Center), and maintained in RPMI (Sigma) containing 10% FBS, 1% penicillin/streptomycin, and 10 ng/ml recombinant mIL-3 (R&D Biosystems). To establish stable Ba/F3 cell lines, Ba/F3 cells were transduced with retroviruses containing mutant EGFR plasmids for 12-24 hours.
After 48-72 hours of transduction, 2 μg/ml puromycin (Invitrogen) was added to Ba/F3 cell lines in complete RPMI. To select for EGFR positive cell lines, cells were stained with PE-EGFR (Biolegend) and sorted by FACS. After sorting, EGFR positive cells were maintained in RPMI containing 10% FBS, 1% penicillin/streptomycin, and 1 ng/ml EGF to support cell viability. […] Shortly, cells were plated in 384-well plates (Greiner Bio-One) at 2000-3000 cells per well in technical triplicate. Seven different concentrations of TKIs or DMSO vehicle were added to reach a final volume of 40 μL per well. After 72 hours, 11 μL of Cell Titer Glo (Promega) was added to each well. Plates were incubated for a minimum of 10 minutes, and bioluminescence was determined using a FLUOstar OPTIMA plate reader (BMG LABTECH). Raw bioluminescence values were normalized to DMSO control treated cells, and values were plotted in GraphPad Prism. […] Drug screens were performed in technical triplicate on each plate and either duplicate or triplicate biological replicates. […] Statistical differences between groups were determined by ANOVA as described in the figure legends.

EGFR L718V = target: T4, EGFR L718V (Homo sapiens, UniProt P00533, L718V); conditions: Ba/F3 cells, EGFR L718V (PACC), Mut/WT
T4 construct: expressed in transfected cells; host or cells: Ba/F3

EGFR R776C = target: T5, EGFR R776C (Homo sapiens, UniProt P00533, R776C); conditions: Ba/F3 cells, EGFR R776C (PACC), Mut/WT
T5 construct: host or cells: Ba/F3

EGFR T790M = target: T6, EGFR T790M (Homo sapiens, UniProt P00533, T790M); conditions: T790M-like-3S, 72 hours
T6 construct: expressed in transfected cells; host or cells: Ba/F3

EGFR L858R T790M L718V = target: T7, EGFR L858R T790M L718V (Homo sapiens, UniProt P00533, L718V/L858R/T790M); conditions: T790M-like-3R, 72 hours
T7 construct: expressed in transfected cells; host or cells: Ba/F3

EGFR A767insASV = target: T8, EGFR A767insASV (Homo sapiens, UniProt P00533, DUP767-769); conditions: Ex20, 72 hours
T8 construct: expressed in transfected cells; host or cells: Ba/F3 cells, retroviral pBabe-Puro vector
Experimental: Data represent the ratio of the IC50 value for a given TKI for cells with an ex20ins EGFR mutation to the IC50 value for cells with wildtype EGFR.
as §1
After 48-72 hours of transduction, 2 μg/ml puromycin (Invitrogen) was added to Ba/F3 cell lines in complete RPMI. To select for EGFR positive cell lines, cells were stained with PE-EGFR (Biolegend) and sorted by FACS. After sorting, EGFR positive cells were maintained in RPMI containing 10% FBS, 1% penicillin/streptomycin, and 1 ng/ml EGF to support cell viability. Drug screening was performed as previously described^41,42. Shortly, cells were plated in 384-well plates (Greiner Bio-One) at 2000-3000 cells per well in technical triplicate. Seven different concentrations of TKIs or DMSO vehicle were added to reach a final volume of 40 μL per well. After 72 hours, 11 μL of Cell Titer Glo (Promega) was added to each well. Plates were incubated for a minimum of 10 minutes, and bioluminescence was determined using a FLUOstar OPTIMA plate reader (BMG LABTECH). Raw bioluminescence values were normalized to DMSO control treated cells, and values were plotted in GraphPad Prism. […] Drug screens were performed in technical triplicate on each plate and either duplicate or triplicate biological replicates. […] Statistical differences between groups were determined by ANOVA as described in the figure legends.

EGFR L858R T790M L792H = target: T9, EGFR L858R T790M L792H (Homo sapiens, UniProt P00533, L792H/L858R/T790M); conditions: T790M-like-3S, 72 hours
T9 construct: expressed in transfected cells; host or cells: Ba/F3
Experimental: (§2) Data represent the ratio of the IC50 value for a given TKI for cells with a T790M-like-3S EGFR mutation to the IC50 value for cells with wildtype EGFR.
as §1
(§3) After 48-72 hours of transduction, 2 μg/ml puromycin (Invitrogen) was added to Ba/F3 cell lines in complete RPMI. To select for EGFR positive cell lines, cells were stained with PE-EGFR (Biolegend) and sorted by FACS. After sorting, EGFR positive cells were maintained in RPMI containing 10% FBS, 1% penicillin/streptomycin, and 1 ng/ml EGF to support cell viability. Drug screening was performed as previously described^41,42. Shortly, cells were plated in 384-well plates (Greiner Bio-One) at 2000-3000 cells per well in technical triplicate. Seven different concentrations of TKIs or DMSO vehicle were added to reach a final volume of 40 μL per well. After 72 hours, 11 μL of Cell Titer Glo (Promega) was added to each well. Plates were incubated for a minimum of 10 minutes, and bioluminescence was determined using a FLUOstar OPTIMA plate reader (BMG LABTECH). Raw bioluminescence values were normalized to DMSO control treated cells, and values were plotted in GraphPad Prism. […] Drug screens were performed in technical triplicate on each plate and either duplicate or triplicate biological replicates.

EGFR L861R = target: T10, EGFR L861R (Homo sapiens, UniProt P00533, L861R); conditions: Classical-Like, 72 hours
T10 construct: expressed in transfected cells; host or cells: Ba/F3 cells, retroviral pBabe-Puro vector (vector made by GeneScript from EGFR WT)

EGFR L718Q = target: T11, EGFR L718Q (Homo sapiens, UniProt P00533, L718Q); conditions: Ba/F3 cells, EGFR L718Q (PACC), Mut/WT
T11 construct: expressed in transfected cells; host or cells: Ba/F3

EGFR L833V = target: T12, EGFR L833V (Homo sapiens, UniProt P00533, L833V); conditions: Classical-Like, 72 hours
T12 construct: expressed in transfected cells; host or cells: Ba/F3 cells, retroviral pBabe-Puro vector

EGFR G719A = target: T13, EGFR G719A (Homo sapiens, UniProt P00533, G719A); conditions: Ba/F3 cells, EGFR G719A (PACC), Mut/WT
T13 construct: expressed in transfected cells; host or cells: Ba/F3

EGFR A763insFQEA = target: T14, EGFR A763insFQEA (Homo sapiens, UniProt P00533, INS763FQEA); conditions: Classical-Like, 72 hours
T14 construct: expressed in transfected cells; host or cells: Ba/F3 cells, retroviral pBabe-Puro vector

EGFR L858R/T790M = target: T15, EGFR L858R/T790M (Homo sapiens, UniProt P00533, L858R/T790M); conditions: T790M-like-3S, 72 hours
T15 construct: expressed in transfected cells; host or cells: Ba/F3

EGFR E709_T710del insD = target: T16, EGFR E709_T710del insD (Homo sapiens, UniProt P00533, DEL709-709/T710D); conditions: Ba/F3 cells, EGFR E709_T710del insD (PACC), Mut/WT
T16 construct: expressed in transfected cells; host or cells: Ba/F3

EGFR S768I/T790M = target: T17, EGFR S768I/T790M (Homo sapiens, UniProt P00533, S768I/T790M); conditions: T790M-like-3S, 72 hours
T17 construct: expressed in transfected cells; host or cells: Ba/F3
Experimental: as §2, §1, §3

EGFR G719A L861Q = target: T18, EGFR G719A L861Q (Homo sapiens, UniProt P00533, G719A/L861Q); conditions: Ba/F3 cells, EGFR G719A L861Q (PACC), Mut/WT
T18 construct: expressed in transfected cells; host or cells: Ba/F3

EGFR G724S T790M = target: T19, EGFR G724S T790M (Homo sapiens, UniProt P00533, G724S/T790M); conditions: T790M-like-3R, 72 hours
T19 construct: expressed in transfected cells; host or cells: Ba/F3

EGFR S811F = target: T20, EGFR S811F (Homo sapiens, UniProt P00533, S811F); conditions: Classical-Like, 72 hours
T20 construct: expressed in transfected cells; host or cells: Ba/F3 cells, retroviral pBabe-Puro vector (vector made by GeneScript from EGFR WT)

EGFR Ex19del/T790M/G724S = target: T21, EGFR Ex19del/T790M/G724S (Homo sapiens, UniProt P00533, DEL746-750/G724S/T790M); conditions: T790M-like-3S, 72 hours
T21 construct: expressed in transfected cells; host or cells: Ba/F3

EGFR L858R G724S = target: T22, EGFR L858R G724S (Homo sapiens, UniProt P00533, G724S/L858R); conditions: Ba/F3 cells, EGFR L858R G724S (PACC), Mut/WT
T22 construct: expressed in transfected cells; host or cells: Ba/F3 (retroviral transduction, pBabe-Puro based vectors)

EGFR Ex19del/C797S = target: T23, EGFR Ex19del/C797S (Homo sapiens, UniProt P00533, C797S/DEL746-750); conditions: Ba/F3 cells, EGFR Ex19del/C797S (PACC), Mut/WT
T23 construct: expressed in transfected cells; host or cells: Ba/F3

EGFR N771dupN = target: T24, EGFR N771dupN (Homo sapiens, UniProt P00533, DUP771-771); conditions: Ex20, 72 hours
T24 construct: expressed in transfected cells; host or cells: Ba/F3 cells, retroviral pBabe-Puro vector

EGFR E709K G719S = target: T25, EGFR E709K G719S (Homo sapiens, UniProt P00533, E709K/G719S); conditions: Ba/F3 cells, EGFR E709K G719S (PACC), Mut/WT
T25 construct: expressed in transfected cells; host or cells: Ba/F3

EGFR L858R L718Q = target: T26, EGFR L858R L718Q (Homo sapiens, UniProt P00533, L718Q/L858R); conditions: Ba/F3 cells, EGFR L858R L718Q (PACC), Mut/WT
T26 construct: host or cells: Ba/F3

EGFR A763insLQEA = target: T27, EGFR A763insLQEA (Homo sapiens, UniProt P00533, INS763LQEA); conditions: Classical-Like, 72 hours
T27 construct: expressed in transfected cells; host or cells: Ba/F3 cells, retroviral pBabe-Puro vector

| SMILES | ratio of the IC50 value for cells with a PACC EGFR mutation to the IC50 value for cells with wildtype EGFR (EGFR Ex19del L718Q) | ratio of IC50 for cells with mutant EGFR to IC50 for cells with wildtype EGFR (Mut/WT) [1] | ratio of IC50 for cells with mutant EGFR to IC50 for cells with wildtype EGFR (Mut/WT) (EGFR L858R/T790M/L718Q) | ratio of the IC50 value for cells with a PACC EGFR mutation to the IC50 value for cells with wildtype EGFR (EGFR L718V) | ratio of the IC50 value for cells with a PACC EGFR mutation to the IC50 value for cells with wildtype EGFR (EGFR R776C) | ratio of IC50 for cells with mutant EGFR to IC50 for cells with wildtype EGFR (Mut/WT) (EGFR T790M) | ratio of IC50 for cells with mutant EGFR to IC50 for cells with wildtype EGFR (Mut/WT) (EGFR L858R T790M L718V) | ratio of IC50 for cells with mutant EGFR to IC50 for cells with wildtype EGFR (Mut/WT) (EGFR A767insASV) | ratio of IC50 for cells with mutant EGFR to IC50 for cells with wildtype EGFR (Mut/WT) (EGFR L858R T790M L792H) | ratio of IC50 for cells with mutant EGFR to IC50 for cells with wildtype EGFR (Mut/WT) (EGFR L861R) | ratio of the IC50 value for cells with a PACC EGFR mutation to the IC50 value for cells with wildtype EGFR (EGFR L718Q) | ratio of IC50 for cells with mutant EGFR to IC50 for cells with wildtype EGFR (Mut/WT) (EGFR L833V) | ratio of the IC50 value for cells with a PACC EGFR mutation to the IC50 value for cells with wildtype EGFR (EGFR G719A) | ratio of IC50 for cells with mutant EGFR to IC50 for cells with wildtype EGFR (Mut/WT) (EGFR A763insFQEA) | ratio of IC50 for cells with mutant EGFR to IC50 for cells with wildtype EGFR (Mut/WT) (EGFR L858R/T790M) | ratio of the IC50 value for cells with a PACC EGFR mutation to the IC50 value for cells with wildtype EGFR (EGFR E709_T710del insD) | ratio of IC50 for cells with mutant EGFR to IC50 for cells with wildtype EGFR (Mut/WT) (EGFR S768I/T790M) | ratio of the IC50 value for cells with a PACC EGFR mutation to the IC50 value for cells with wildtype EGFR (EGFR G719A L861Q) | ratio of IC50 for cells with mutant EGFR to IC50 for cells with wildtype EGFR (Mut/WT) (EGFR G724S T790M) | ratio of IC50 for cells with mutant EGFR to IC50 for cells with wildtype EGFR (Mut/WT) (EGFR S811F) | other results |
| --- | --- | --- | --- | --- | --- | --- | --- | --- | --- | --- | --- | --- | --- | --- | --- | --- | --- | --- | --- | --- | --- |
| C=CC(=O)N1CC[C@@H](Oc2nc(Nc3ccc(N4CCC(N5CCN(C)CC5)CC4)cc3)c(C(N)=O)nc2CC)C1 [Naquotinib] | 0.05586 | 0.00433 | 0.6815 | 0.5426 | 4.27 | 0.4037 | 0.6413 | 1.61 | 0.03529 | 0.09054 | 5.448 | 0.02478 | 0.1344 | 0.1912 | 0.01398 | 0.497 | 0.1426 | 0.03136 | 0.1395 | 0.0351 | ratio of IC50 for cells with mutant EGFR to IC50 for cells with wildtype EGFR (Mut/WT) (EGFR Ex19del/T790M/G724S): 0.02849; ratio of the IC50 value for cells with a PACC EGFR mutation to the IC50 value for cells with wildtype EGFR (EGFR L858R G724S): 0.5799; ratio of the IC50 value for cells with a PACC EGFR mutation to the IC50 value for cells with wildtype EGFR (EGFR Ex19del/C797S): 11.45; ratio of IC50 for cells with mutant EGFR to IC50 for cells with wildtype EGFR (Mut/WT) (EGFR N771dupN): 3.012; ratio of the IC50 value for cells with a PACC EGFR mutation to the IC50 value for cells with wildtype EGFR (EGFR E709K G719S): 0.5339; ratio of the IC50 value for cells with a PACC EGFR mutation to the IC50 value for cells with wildtype EGFR (EGFR L858R L718Q): 5.547; ratio of IC50 for cells with mutant EGFR to IC50 for cells with wildtype EGFR (Mut/WT) (EGFR A763insLQEA): 0.3419 |
| Cc1cc(C(=O)Nc2nc3cccc(Cl)c3n2[C@@H]2CCCCN(C(=O)/C=C/CN(C)C)C2)ccn1 [Nazartinib] | 0.03801 | 0.001195 | 0.7714 | 1.157 | 0.2846 | 0.1166 | 0.6592 | 0.6382 | 0.02884 | 0.01121 | 1.245 | 0.002739 | 0.06775 | 0.05676 | 0.01957 | 0.1584 | 0.0197 | 0.06344 | 0.1867 | 0.00115 | ratio of IC50 for cells with mutant EGFR to IC50 for cells with wildtype EGFR (Mut/WT) (EGFR Ex19del/T790M/G724S): 0.06117; ratio of the IC50 value for cells with a PACC EGFR mutation to the IC50 value for cells with wildtype EGFR (EGFR L858R G724S): 0.009244; ratio of the IC50 value for cells with a PACC EGFR mutation to the IC50 value for cells with wildtype EGFR (EGFR Ex19del/C797S): 3.067; ratio of IC50 for cells with mutant EGFR to IC50 for cells with wildtype EGFR (Mut/WT) (EGFR N771dupN): 0.371; ratio of the IC50 value for cells with a PACC EGFR mutation to the IC50 value for cells with wildtype EGFR (EGFR E709K G719S): 0.4195; ratio of the IC50 value for cells with a PACC EGFR mutation to the IC50 value for cells with wildtype EGFR (EGFR L858R L718Q): 0.6234; ratio of IC50 for cells with mutant EGFR to IC50 for cells with wildtype EGFR (Mut/WT) (EGFR A763insLQEA): 0.05507 |
